Laboratory results published in ChEMBL document CHEMBL5113538, “Discovery of Novel Allosteric EGFR L858R Inhibitors for the Treatment of Non-Small-Cell Lung Cancer as a Single Agent or in Combination with Osimertinib” (J Med Chem, 2022).

What was measured:
BaF3 [1] = assay: Cytotoxicity against mouse BaF3 cells expressing EGFR L858R/T790M/C797S mutant assessed as reduction in cell viability measured after 72 hrs by cell titre glo luminescence assay; format: functional, cell-based; conditions: BaF3, 72 h
D(2) dopamine receptor = D(2) dopamine receptor (Homo sapiens, UniProt P14416); assay: Inhibition of dopamine D2 receptor (unknown origin)
[2] = target: T1, Angiotensin-converting enzyme (Homo sapiens, UniProt P12821); assay: Inhibition of angiotensin converting enzyme (unknown origin) at 10 uM relative to control
[3] = target: T1, Angiotensin-converting enzyme; assay: Inhibition of angiotensin-converting enzyme (unknown origin)
Adenosine receptor A3 = target: T2, Adenosine receptor A3 (Homo sapiens, UniProt P0DMS8); assay: Inhibition of adenosine A3 receptor (unknown origin)
T2 sequence (P0DMS8 whole entry): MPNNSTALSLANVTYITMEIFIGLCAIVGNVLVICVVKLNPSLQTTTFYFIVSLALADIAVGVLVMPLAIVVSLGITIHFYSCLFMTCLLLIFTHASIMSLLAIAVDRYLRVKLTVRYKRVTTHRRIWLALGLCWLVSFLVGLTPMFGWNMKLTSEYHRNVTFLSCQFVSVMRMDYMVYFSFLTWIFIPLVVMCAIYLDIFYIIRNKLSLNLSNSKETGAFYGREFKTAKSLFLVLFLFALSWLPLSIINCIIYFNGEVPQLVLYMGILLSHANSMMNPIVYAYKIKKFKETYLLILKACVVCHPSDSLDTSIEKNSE

[4] = target: T3, Muscarinic acetylcholine receptor M2 (Homo sapiens) (UniProt P08172); assay: Inhibition of muscarinic M2 receptor (unknown origin) at 10 uM relative to control
T3 sequence (whole entry): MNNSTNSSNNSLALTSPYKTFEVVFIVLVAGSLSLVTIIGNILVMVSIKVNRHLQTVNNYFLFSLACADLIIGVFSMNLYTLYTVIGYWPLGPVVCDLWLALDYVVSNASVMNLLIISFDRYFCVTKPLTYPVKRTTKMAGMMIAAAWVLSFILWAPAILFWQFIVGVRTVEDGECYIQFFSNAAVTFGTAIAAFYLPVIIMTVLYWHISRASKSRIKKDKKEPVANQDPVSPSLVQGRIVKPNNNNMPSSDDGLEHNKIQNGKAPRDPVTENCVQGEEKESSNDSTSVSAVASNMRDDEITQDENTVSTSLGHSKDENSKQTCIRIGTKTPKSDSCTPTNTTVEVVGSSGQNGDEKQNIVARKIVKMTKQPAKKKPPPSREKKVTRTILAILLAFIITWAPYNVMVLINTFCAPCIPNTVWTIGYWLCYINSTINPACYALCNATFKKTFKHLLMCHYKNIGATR

[5] = target: T4, Muscarinic acetylcholine receptor M2 (Homo sapiens, UniProt P08172); assay: Inhibition of muscarinic M2 receptor (unknown origin)
T4 sequence (P08172 whole entry): T3 sequence (whole entry)

[6] = target: T5, Glucocorticoid receptor (Homo sapiens) (UniProt P04150); assay: Inhibition of glucocorticoid receptor (unknown origin) at 10 uM relative to control
T5 sequence (whole entry): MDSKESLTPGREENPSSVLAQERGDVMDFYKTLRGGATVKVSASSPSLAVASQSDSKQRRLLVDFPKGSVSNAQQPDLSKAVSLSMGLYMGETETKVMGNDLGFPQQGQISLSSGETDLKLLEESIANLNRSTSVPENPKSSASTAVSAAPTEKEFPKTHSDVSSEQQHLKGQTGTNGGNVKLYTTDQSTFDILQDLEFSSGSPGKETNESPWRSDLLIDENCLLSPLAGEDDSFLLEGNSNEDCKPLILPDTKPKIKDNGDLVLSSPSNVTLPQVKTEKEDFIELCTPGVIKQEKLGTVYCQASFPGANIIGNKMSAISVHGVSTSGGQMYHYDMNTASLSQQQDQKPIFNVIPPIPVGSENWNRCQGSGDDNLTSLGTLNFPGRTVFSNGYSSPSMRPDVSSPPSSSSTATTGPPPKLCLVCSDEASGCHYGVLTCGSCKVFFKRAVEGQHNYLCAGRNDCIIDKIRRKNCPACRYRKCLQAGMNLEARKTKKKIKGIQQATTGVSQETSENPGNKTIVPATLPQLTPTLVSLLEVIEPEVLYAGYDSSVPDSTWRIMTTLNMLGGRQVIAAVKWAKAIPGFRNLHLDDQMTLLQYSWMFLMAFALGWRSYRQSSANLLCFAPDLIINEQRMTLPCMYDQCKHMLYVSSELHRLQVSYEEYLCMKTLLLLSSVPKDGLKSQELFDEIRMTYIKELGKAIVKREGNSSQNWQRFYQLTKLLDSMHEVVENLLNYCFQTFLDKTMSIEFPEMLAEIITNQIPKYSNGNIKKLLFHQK

Glucocorticoid receptor = target: T6, Glucocorticoid receptor (Homo sapiens, UniProt P04150); assay: Inhibition of glucocorticoid receptor (unknown origin)
T6 sequence (P04150 whole entry): T5 sequence (whole entry)

NCI-H292 = assay: Antiproliferative activity against human NCI-H292 cells assessed as cell growth inhibition; format: functional
L-363 = assay: Antiproliferative activity against human L-363 cells assessed as cell growth inhibition; format: functional
[7] = Clearance in CD1 mouse at 1 mg/kg, iv administered as single dose measured after 24 hrs by LC-MS/MS analysis; format: ADME, organism-based; conditions: in vivo
[8] = Volume of distribution at steady state in CD1 mouse at 1 mg/kg, iv administered as single dose measured after 24 hrs by LC-MS/MS analysis; format: ADME, organism-based; conditions: in vivo, read-out: Vdss
[9] = Tmax in CD1 mouse at 10 mg/kg, po administered as single dose measured after 24 hrs by LC-MS/MS analysis; format: ADME, organism-based; conditions: in vivo
[10] = AUC(0 to t) in CD1 mouse at 10 mg/kg, po administered as single dose measured after 24 hrs by LC-MS/MS analysis; format: ADME, organism-based; design: time 24 hrs, dose 10 mg/kg, route po; conditions: in vivo
[11] = Tlast in CD1 mouse at 1 mg/kg, iv administered as single dose measured after 24 hrs by LC-MS/MS analysis; format: ADME, organism-based; conditions: in vivo
[12] = Tlast in CD1 mouse at 10 mg/kg, po administered as single dose measured after 24 hrs by LC-MS/MS analysis; format: ADME, organism-based; conditions: in vivo
BaF3 [13] = assay: Antitumor activity against mouse BaF3 cells harboring EGFR L858R/C797S mutant allografted in Balb/c nude mouse assessed as in tumor growth inhibition at 10 mg/kg, po administered twice daily measured on day 20; format: functional; conditions: BaF3, 480 h, time 20 day, read-out: TGI
[14] = Toxicity in Balb/c nude mouse allografted with mouse BaF3 cells harboring EGFR L858R/C797S mutant assessed as tolerability at 10 mg/kg, po administered twice daily for 20 days; format: organism-based; conditions: in vivo, 480 h, time 20 day
NCI-H1975 = assay: Antitumor activity against human NCI-H1975 cells harboring EGFR L858R/T790M mutant xenografted in Balb/c nude mouse assessed as in tumor growth inhibition at 10 mg/kg, po administered once daily measured after 14 days in presence of osimertinib; format: functional; conditions: NCI-H1975, 336 h, time 14 day, read-out: TGI
[15] = Toxicity in Balb/c nude mouse xenografted with human NCI-H1975 cells harboring EGFR L858R/T790M mutant assessed as change in body weight at 10 mg/kg, po administered twice daily measured after 14 days; format: organism-based; conditions: in vivo, 336 h, time 14 day

T1 sequence (P12821 whole entry): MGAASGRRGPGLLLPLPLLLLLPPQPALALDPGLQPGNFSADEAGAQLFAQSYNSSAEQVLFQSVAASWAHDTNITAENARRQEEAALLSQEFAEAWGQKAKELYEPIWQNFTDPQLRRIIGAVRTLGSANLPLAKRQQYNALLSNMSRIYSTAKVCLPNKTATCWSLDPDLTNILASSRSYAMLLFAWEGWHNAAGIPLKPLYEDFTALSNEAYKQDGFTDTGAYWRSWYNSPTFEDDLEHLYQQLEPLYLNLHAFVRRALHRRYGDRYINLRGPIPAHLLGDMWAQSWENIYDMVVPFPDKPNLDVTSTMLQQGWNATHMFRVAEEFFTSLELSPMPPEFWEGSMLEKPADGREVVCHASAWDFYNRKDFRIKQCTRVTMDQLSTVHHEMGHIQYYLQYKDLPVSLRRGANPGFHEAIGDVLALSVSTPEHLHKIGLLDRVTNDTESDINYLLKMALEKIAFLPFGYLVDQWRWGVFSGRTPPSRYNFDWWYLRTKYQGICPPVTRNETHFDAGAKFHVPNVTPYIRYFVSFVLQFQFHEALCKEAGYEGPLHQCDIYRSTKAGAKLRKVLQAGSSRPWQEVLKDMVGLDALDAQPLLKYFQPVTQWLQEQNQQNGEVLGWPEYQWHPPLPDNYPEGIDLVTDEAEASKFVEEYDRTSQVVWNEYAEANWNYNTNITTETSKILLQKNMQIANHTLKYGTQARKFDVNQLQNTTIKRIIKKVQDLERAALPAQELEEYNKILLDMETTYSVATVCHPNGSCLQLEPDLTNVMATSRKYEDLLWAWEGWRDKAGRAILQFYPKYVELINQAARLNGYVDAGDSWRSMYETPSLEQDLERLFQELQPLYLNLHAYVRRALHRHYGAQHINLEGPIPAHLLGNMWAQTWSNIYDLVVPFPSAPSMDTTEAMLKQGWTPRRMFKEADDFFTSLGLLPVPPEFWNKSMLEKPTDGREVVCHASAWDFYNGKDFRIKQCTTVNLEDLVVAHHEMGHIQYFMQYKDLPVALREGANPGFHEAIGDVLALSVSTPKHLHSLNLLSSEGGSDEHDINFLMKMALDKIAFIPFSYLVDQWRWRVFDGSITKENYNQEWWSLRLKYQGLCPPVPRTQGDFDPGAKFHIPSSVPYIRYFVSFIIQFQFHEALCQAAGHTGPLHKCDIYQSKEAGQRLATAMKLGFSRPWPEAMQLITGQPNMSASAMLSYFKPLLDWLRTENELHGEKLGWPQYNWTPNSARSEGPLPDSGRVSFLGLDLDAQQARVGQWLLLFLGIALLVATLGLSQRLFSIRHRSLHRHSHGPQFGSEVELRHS
Chain of D(2) dopamine receptor (P14416 whole entry): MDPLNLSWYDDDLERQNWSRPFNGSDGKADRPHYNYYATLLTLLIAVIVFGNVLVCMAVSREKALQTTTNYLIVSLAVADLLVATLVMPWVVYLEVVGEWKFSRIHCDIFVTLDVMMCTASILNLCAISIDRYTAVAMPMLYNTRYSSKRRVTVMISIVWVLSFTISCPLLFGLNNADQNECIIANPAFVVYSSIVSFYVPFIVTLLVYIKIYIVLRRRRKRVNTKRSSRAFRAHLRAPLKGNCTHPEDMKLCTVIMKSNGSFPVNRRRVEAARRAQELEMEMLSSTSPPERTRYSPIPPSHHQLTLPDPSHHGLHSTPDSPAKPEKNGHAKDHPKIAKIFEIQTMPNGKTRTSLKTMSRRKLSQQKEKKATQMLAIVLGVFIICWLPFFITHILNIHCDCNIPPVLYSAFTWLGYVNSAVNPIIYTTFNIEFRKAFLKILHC

## Cc1c(C#Cc2ccc(CN3CCC(CO)CC3)cc2)cc(C(F)F)c2cn(C(C(=O)Nc3nccs3)c3ncn4c3CCC43CC3)nc12 (stereo unspecified)
BaF3 [1]
  IC50: 1 nM
D(2) dopamine receptor
  IC50: 1000 nM
[2]
  inhibition: 96%
[3]
  IC50: > 3 µM
Adenosine receptor A3
  IC50: 200 nM
[4]
  inhibition: 91%
[5]
  IC50: 1800 nM
[6]
  inhibition: 90%
Glucocorticoid receptor
  IC50: 3.2 µM
NCI-H292
  GI50: 350 nM
L-363
  GI50: 1320 nM
[7]
  clearance: 20 mL/min/kg
[8]
  Vd: 10 L/kg
[9]
  Tmax: 5 h
[10]
  AUC(0-t) at 24 h: 1790 ng·h/mL
[11]
  Tlast: 24 h
[12]
  Tlast: 24 h
BaF3 [13]
  inhibition in vivo at 10 mg/kg: 70%
[14]
  Activity: Non-Toxic
NCI-H1975
  inhibition in vivo at 10 mg/kg: 100%
[15]
  Activity: Non-Toxic
